# The source made the active and inactive calls.
# Columns and labels:
# [1] = target: Peroxisome proliferator-activated receptor gamma/Nuclear receptor coactivator 1 (Homo sapiens, UniProt P37231); test: (§1) TR-FRET dose response biochemical High Throughput Screening assay for agonists of the steroid receptor coactivator 1 (SRC-1) recruitment by the peroxisome proliferator-activated receptor gamma (PPAR gamma): non-selective agonists. [Related pubchem assays (depositor defined):AID1300, AID1808, AID504735, AID631]; assay type: protein assay
# [2] = target: Peroxisome proliferator-activated receptor gamma/Nuclear receptor coactivator 3 (Homo sapiens, UniProt P37231); test: as §1, with “3 (SRC-3)” for “1 (SRC-1)”, “assays: 1301 (Confirmation screen.), 1048 (Primary screen.)]” for “assays (depositor defined):AID1300, AID1808, AID504735, AID631]”; assay type: functional
# [3] = target: Peroxisome proliferator-activated receptor gamma/Nuclear receptor coactivator 2 (Homo sapiens, UniProt P37231); test: TR-FRET dose response biochemical High Throughput Screening assay for agonists of the steroid receptor coactivator 2 (SRC-2) recruitment by the peroxisome proliferator-activated receptor gamma (PPAR gamma): non-selective agonists. [Related pubchem assays: 1297, 1032 ]; assay type: functional
# [4] = test system: Streptococcus sp. 'group A'; test: Streptococcus pyogenes SK(-)GAS viability under kanamycin – luminescence, BacTiterGlo, confirmation, counter-screen for streptokinase expression inhibitor project, dose response (AID 1900); assay type: functional, organism-based
# [5] = target: T1, Streptokinase A (Streptococcus pyogenes serotype M1, UniProt P10520); test: viability-normalized secreted streptokinase activity reduction – plasminogen activation absorbance, OD405, dose response (AID 1914); assay type: functional, Streptococcus pyogenes M1 GAS;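 note: secreted streptokinase activity via plasminogen activation per viability signal from cell pellet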
# T1 sequence (P10520 whole entry): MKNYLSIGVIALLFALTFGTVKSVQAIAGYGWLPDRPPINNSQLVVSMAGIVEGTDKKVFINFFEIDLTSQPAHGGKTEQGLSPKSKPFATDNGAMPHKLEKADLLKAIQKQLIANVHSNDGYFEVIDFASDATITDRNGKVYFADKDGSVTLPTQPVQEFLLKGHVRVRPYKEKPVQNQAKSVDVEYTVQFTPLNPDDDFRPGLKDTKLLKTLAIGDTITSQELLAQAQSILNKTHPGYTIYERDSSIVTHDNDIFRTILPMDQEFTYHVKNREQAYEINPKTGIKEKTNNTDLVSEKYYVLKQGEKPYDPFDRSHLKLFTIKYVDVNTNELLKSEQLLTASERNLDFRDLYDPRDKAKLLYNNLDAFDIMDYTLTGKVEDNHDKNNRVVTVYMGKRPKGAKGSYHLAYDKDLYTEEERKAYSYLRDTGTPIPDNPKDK
# [6] = test system: Streptococcus; test: GAS UMAA2166 growth inhibition – luminescence, BacTiterGlo, counter-screen for streptokinase expression inhibitor project, dose response (AID 1915); assay type: functional, organism-based;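 note: potency for reduction of bacterial viability or growth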
# [7] = HPDE-C7 pancreatic duct cell viability loss – fluorescence, HTS (AID 430); assay type: functional, cell-based; conditions: Homo sapiens
# [8] = target: T2, Estrogen receptor (Homo sapiens, UniProt P03372);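 note: potency for inhibiting coactivator peptide recruitment to the receptor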
# T2 sequence (P03372 whole entry): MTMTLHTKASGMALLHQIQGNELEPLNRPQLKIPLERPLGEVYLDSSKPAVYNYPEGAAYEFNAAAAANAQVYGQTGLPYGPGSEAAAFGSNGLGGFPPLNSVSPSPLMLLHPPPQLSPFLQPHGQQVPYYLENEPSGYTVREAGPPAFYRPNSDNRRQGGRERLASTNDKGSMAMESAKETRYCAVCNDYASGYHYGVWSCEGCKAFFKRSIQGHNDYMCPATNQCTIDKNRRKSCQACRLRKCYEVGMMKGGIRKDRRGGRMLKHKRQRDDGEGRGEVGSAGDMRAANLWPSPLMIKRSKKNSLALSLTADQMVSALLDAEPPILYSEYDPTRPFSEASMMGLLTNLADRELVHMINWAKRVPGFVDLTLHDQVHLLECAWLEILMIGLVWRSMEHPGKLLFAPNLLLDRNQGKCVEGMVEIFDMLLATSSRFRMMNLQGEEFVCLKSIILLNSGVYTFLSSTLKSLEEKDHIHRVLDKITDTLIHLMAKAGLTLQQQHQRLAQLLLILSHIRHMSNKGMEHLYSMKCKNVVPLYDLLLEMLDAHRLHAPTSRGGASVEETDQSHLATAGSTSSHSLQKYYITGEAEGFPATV
# [9] = viability loss of HPDE-C7K cells – cell-based, fluorescence, HTS, primary screen (AID 431); assay type: functional; conditions: Homo sapiens
# [10] = target: G-protein coupled receptor 55 (Homo sapiens, UniProt Q9Y2T6); test: selective activators of receptor GPR55 – imaging, U2OS cells, beta-arrestin-GFP redistribution, primary screen (AID 1961); assay type: functional
# [11] = test system: HEK293; test: inhibition of NOD1-driven NF-kB reporter – cell-based, luminescence, uHTS, primary screen (AID 1578); assay type: functional; conditions: Homo sapiens
# [12] = test system: HEK293; test: cells; assay type: functional, cell-based; conditions: Homo sapiens
# [13] = test system: HEK293; test: cells; assay type: functional, cell-based; conditions: Homo sapiens; remark: listed apart in the source
# [14] = target: Nucleotide-binding oligomerization domain-containing protein 2 (Homo sapiens, UniProt Q9HC29); test: inhibition of NOD2-driven NF-kB reporter – cell-based, luminescence, uHTS, HEK293 (AID 1566); assay type: functional
# [15] = test system: HEK293; test: NOD2 signaling inhibitors in MDP-stimulated cells, cell-based, uHTS, luminescence (AID 2001); assay type: functional; conditions: Homo sapiens
# [16] = test system: HEK293; test: cells; assay type: functional, cell-based; conditions: Homo sapiens; remark: listed apart in the source
# [17] = target: T3, Acyl-homoserine lactone acylase PvdQ (Pseudomonas aeruginosa (strain LESB58), UniProt Q9I194); test: PvdQ acylase enzyme activity blockers – biochemical, fluorescence, plate reader and imaging, cherry-picks, dose response (AID 493231)
# T3 sequence (Q9I194 whole entry): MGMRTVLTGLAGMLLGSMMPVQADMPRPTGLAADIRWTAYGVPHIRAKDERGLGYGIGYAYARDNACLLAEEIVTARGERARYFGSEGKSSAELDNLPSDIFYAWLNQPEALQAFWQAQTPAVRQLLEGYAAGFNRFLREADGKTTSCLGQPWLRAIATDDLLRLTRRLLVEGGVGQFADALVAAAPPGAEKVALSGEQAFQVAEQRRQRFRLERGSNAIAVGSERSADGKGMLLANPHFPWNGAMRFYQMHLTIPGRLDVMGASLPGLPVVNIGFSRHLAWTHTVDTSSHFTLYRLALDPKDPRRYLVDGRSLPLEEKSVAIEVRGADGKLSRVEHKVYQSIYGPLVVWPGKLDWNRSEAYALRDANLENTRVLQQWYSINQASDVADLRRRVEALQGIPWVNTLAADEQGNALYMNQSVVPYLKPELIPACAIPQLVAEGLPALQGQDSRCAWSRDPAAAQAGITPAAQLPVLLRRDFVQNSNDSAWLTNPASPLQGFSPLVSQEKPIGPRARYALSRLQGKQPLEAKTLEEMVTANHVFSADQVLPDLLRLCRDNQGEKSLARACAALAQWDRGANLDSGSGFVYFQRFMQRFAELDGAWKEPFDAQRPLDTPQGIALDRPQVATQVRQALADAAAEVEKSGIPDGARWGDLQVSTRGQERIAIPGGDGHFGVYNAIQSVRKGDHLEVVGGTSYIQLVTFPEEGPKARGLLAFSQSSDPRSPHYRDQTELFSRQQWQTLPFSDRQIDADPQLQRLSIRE
# [18] = target: T4, Polyadenylate-binding protein 1 (Homo sapiens, UniProt P11940); test: MLLE binding blockers, Cy5 peptide tracer – biochemical, fluorescence polarization, Cy5-PAM2 peptide, secondary, miRNA deadenylation inhibitor project, dose response (AID 602260); assay type: functional; conditions: read-out: IC50_Mean
# [19] = target: T4, Polyadenylate-binding protein 1; test: MLLE domain peptide-binding blockers, IC50 – biochemical, fluorescence polarization, FITC-PAM2 peptide, dose response (AID 602259); assay type: functional; conditions: read-out: IC50_Mean
# [20] = target: T5, CAAX prenyl protease 2 (Saccharomyces cerevisiae S288c, UniProt Q03530); assay type: biochemical
# T5 sequence (Q03530 whole entry): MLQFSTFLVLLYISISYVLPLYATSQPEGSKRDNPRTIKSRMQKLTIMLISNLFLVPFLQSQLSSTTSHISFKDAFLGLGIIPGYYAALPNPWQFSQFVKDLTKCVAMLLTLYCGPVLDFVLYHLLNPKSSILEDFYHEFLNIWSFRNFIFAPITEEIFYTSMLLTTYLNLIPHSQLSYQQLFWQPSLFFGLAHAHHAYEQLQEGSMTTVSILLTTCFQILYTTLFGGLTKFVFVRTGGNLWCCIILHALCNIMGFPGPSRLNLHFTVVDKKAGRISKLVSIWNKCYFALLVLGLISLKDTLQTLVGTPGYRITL
# [21] = test system: BJ; test: BJ-TERT fibroblast viability loss – cell-based, RAS-independent, luminescence, dose response (AID 1933); assay type: functional; conditions: Homo sapiens
# [22] = test system: BJ; test: cells; assay type: functional, cell-based; conditions: Homo sapiens
# [23] = test system: BJ; test: BJ-TERT-LT-ST fibroblast viability loss – cell-based, RAS-independent, luminescence, dose response (AID 1935); assay type: functional; conditions: Homo sapiens;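 note: BJ fibroblasts immortalized with TERT plus LT and ST oncogenes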
# [24] = DRD fibroblast viability loss – cell-based, non-viral oncogenic, luminescence, dose response (AID 1934); assay type: functional; conditions: Homo sapiens
# [25] = target: Nonstructural protein 1 (Influenza A virus, UniProt Q194T2); assay type: functional, Influenza A virus (A/California/07/2009(H1N1))
# [26] = NIH-3T3 fibroblast cytotoxicity, dose response, cytotoxicity control, cell-based, fluorescence, Alamar Blue, secondary assay (AID 2327); assay type: functional;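 note: NIH-3T3 mouse fibroblasts cultured with fluconazole at 8 µg/mL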
# [27] = luciferase reporter signal suppression in cells – H4 neuroglioma cells, luminescence, dose response (AID 1990); assay type: functional, cell-based
# [28] = Luminescence Cell-Based Dose Response HTS to Identify Inhibitors of 5'UTR Stem-Loop Driven Prion Protein mRNA Translation in H4 Neuroglioblastoma Cells. [Related pubchem assays: 1827 (Project Summary), 1813 (Primary HTS)]; assay type: functional
# [29] = alpha-synuclein stem-loop luciferase translation blockers – H4 neuroglioma cells, luminescence, confirmation (AID 1988); assay type: functional, cell-based
# [30] = fluconazole-exposed Candida albicans growth modulators – fluorescence, retest, confirmation (AID 2467); assay type: functional, cell-based
# [31] = microbe, parasite or virus in culture; assay type: functional; conditions: Mycobacterium tuberculosis
# [32] = target: T6, Bcl-2-related protein A1 (Mus musculus, UniProt Q07440); assay type: functional;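 note: confirmatory dose–response counterscreen on Bfl-1, used to check hits from a UBC13 polyubiquitin inhibitor campaign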
# T6 sequence (Q07440 whole entry): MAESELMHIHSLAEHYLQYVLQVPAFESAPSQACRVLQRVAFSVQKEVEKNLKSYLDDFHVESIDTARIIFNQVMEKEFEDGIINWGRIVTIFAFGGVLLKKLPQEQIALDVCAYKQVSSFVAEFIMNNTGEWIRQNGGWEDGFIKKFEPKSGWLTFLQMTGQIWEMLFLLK
# [33] = target: T7, Ubiquitin-conjugating enzyme E2 N (Homo sapiens, UniProt P61088); assay type: functional
# T7 sequence (P61088 whole entry): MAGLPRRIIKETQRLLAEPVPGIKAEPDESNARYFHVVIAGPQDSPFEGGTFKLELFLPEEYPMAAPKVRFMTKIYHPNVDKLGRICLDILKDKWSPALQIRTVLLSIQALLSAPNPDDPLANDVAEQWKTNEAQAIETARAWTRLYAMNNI
# [34] = target: T7, Ubiquitin-conjugating enzyme E2 N; assay type: functional; remark: listed apart in the source
# Peroxisome proliferator-activated receptor gamma/Nuclear receptor coactivator 2, sequence (P37231 whole entry): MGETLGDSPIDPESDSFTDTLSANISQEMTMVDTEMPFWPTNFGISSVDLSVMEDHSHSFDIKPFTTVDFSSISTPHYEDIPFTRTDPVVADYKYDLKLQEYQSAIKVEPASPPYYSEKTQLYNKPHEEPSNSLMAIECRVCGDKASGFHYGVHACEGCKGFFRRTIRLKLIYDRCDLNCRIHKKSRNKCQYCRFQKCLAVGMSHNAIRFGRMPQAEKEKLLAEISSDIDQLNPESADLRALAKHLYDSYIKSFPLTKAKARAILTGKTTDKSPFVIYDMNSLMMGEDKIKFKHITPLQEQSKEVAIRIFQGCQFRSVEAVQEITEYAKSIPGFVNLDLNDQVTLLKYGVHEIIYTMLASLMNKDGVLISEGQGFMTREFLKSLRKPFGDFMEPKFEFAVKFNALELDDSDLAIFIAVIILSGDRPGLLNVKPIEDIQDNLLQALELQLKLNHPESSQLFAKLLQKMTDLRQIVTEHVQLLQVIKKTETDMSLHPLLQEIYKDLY
# Peroxisome proliferator-activated receptor gamma/Nuclear receptor coactivator 2, sequence (Q15596 whole entry, further chain): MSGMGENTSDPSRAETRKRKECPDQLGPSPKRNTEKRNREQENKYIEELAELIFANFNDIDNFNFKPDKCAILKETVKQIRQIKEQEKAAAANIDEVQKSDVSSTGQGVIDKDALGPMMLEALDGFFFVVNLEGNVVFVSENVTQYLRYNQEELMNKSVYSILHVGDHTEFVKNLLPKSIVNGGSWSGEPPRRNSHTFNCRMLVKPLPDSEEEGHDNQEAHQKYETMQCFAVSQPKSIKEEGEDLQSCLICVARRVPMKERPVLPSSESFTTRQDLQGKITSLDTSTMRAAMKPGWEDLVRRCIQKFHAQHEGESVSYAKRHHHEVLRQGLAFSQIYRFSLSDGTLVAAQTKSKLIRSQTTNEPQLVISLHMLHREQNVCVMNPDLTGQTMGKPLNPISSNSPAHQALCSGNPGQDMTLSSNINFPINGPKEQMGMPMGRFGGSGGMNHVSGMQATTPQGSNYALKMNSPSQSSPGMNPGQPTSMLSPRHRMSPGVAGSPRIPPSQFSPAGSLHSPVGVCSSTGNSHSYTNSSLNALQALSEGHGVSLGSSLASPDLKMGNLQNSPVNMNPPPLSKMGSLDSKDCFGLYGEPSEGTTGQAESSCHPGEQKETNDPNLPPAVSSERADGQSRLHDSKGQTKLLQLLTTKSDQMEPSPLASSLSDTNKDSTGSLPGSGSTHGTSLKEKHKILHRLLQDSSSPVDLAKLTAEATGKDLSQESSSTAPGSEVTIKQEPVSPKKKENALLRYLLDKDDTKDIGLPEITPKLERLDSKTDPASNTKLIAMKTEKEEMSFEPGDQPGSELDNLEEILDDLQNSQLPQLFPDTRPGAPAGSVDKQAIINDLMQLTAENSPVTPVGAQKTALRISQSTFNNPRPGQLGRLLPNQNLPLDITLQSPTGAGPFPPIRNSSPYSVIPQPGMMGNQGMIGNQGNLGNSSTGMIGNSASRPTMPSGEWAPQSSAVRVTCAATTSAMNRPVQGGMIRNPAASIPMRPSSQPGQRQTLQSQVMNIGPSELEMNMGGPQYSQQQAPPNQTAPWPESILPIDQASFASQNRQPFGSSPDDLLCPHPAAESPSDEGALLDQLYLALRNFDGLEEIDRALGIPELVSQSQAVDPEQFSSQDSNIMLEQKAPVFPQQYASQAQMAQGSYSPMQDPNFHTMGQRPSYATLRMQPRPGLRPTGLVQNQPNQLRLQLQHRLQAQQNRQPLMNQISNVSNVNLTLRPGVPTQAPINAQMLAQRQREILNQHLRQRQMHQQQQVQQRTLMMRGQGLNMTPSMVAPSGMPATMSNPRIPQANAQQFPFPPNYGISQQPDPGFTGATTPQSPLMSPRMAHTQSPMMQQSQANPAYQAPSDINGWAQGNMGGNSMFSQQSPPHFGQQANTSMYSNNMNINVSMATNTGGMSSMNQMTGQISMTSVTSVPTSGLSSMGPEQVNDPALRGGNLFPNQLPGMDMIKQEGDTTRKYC
# Peroxisome proliferator-activated receptor gamma/Nuclear receptor coactivator 1, sequence (P37231 whole entry): as the sequence (P37231 whole entry) above
# Peroxisome proliferator-activated receptor gamma/Nuclear receptor coactivator 1, sequence (Q15788 whole entry, further chain): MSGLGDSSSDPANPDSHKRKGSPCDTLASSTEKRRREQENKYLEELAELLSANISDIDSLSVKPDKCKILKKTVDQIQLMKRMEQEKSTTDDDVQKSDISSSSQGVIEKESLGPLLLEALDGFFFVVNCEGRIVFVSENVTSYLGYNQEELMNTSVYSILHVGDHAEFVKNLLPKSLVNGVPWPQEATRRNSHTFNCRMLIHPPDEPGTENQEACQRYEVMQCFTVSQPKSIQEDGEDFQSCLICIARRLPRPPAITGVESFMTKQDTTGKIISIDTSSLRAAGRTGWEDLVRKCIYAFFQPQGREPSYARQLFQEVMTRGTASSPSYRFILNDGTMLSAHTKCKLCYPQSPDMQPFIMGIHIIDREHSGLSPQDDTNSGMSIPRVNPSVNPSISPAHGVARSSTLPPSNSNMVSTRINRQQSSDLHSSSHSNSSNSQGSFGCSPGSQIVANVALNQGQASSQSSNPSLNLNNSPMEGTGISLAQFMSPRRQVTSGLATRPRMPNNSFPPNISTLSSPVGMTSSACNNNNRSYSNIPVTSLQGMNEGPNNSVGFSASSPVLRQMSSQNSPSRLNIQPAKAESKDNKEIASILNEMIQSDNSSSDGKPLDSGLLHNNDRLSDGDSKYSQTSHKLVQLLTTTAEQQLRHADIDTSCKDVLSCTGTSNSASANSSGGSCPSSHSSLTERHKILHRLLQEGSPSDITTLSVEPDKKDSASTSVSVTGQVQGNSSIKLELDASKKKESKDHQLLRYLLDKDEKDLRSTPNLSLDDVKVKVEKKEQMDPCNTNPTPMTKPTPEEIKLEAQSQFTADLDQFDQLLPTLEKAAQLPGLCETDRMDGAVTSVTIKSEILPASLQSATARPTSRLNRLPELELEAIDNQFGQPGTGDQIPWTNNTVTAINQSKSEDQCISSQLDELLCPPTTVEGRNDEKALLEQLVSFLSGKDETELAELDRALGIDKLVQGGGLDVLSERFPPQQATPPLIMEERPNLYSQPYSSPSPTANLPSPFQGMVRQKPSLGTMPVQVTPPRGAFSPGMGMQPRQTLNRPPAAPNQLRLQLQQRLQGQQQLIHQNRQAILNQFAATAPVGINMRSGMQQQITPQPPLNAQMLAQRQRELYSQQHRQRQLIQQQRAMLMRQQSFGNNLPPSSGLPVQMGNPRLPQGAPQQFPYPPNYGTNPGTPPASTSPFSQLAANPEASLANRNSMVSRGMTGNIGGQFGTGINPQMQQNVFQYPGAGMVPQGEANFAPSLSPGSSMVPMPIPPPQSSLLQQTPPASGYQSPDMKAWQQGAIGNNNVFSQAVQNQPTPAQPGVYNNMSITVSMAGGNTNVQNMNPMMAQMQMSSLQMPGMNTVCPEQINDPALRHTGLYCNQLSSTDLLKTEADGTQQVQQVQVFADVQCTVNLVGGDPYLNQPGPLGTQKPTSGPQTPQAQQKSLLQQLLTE
# G-protein coupled receptor 55, sequence (Q9Y2T6 whole entry): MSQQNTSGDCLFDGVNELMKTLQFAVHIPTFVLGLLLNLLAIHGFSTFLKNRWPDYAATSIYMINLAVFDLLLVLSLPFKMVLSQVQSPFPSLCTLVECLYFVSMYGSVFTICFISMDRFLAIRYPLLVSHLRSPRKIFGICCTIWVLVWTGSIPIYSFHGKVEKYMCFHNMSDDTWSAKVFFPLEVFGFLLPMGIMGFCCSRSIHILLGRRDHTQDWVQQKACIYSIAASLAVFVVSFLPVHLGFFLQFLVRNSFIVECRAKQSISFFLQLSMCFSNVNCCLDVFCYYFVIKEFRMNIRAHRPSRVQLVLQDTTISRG
# T4 sequence (P11940 whole entry, the tested form may be a part): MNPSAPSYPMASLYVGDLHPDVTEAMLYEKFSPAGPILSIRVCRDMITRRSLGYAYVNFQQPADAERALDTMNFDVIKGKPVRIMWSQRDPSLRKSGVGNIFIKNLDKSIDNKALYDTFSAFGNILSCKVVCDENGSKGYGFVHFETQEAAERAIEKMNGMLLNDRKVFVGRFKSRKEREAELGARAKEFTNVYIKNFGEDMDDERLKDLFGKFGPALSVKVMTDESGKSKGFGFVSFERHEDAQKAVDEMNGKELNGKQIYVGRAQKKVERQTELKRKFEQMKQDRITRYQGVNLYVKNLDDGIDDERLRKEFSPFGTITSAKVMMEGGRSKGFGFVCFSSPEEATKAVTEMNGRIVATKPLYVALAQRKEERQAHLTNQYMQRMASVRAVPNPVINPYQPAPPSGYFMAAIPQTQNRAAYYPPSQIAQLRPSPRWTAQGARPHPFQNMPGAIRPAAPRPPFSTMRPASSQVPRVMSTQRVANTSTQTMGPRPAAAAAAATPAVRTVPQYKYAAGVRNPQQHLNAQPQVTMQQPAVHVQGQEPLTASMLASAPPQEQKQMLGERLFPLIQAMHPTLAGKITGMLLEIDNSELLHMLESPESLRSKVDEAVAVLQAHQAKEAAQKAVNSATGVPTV
structure (smiles),measurement,setting,value
Cc1ccc2nc(NC(=O)CSc3ncnc4c3oc3ccccc34)sc2c1,EC50,[1],> 79.4 µM (inactive)
same,EC50,[2],> 79.4 µM (not active)
same,EC50,[3],> 79.4 µM (not active)
CSc1ccccc1-c1nnc(S)o1,EC50,[1],22.3 µM (inactive)
same,EC50,[4],> 150 µM (not active)
same,EC50,[2],> 79.4 µM (not active)
same,EC50,[5],> 150 µM (not active)
same,EC50,[3],4.77 µM (active)
same,EC50,[6],> 150 µM (not active)
Cc1ccc(-c2nn3c(C)nnc3s2)cc1NC(=O)c1ccc(-c2cccc(Cl)c2)o1,EC50,[7],15.4 µM (active)
same,IC50,[8],> 50 µM (not active)
same,EC50,[9],17.7 µM (active)
same,EC50,[10],17.7 µM (inactive)
CCc1c(C)nc2ccc(Br)cc2c1SCCC#N,EC50,[11],3.05 µM (active)
same,IC50,[12],1.29 µM (active)
same,IC50,[13],> 20 µM (inactive)
same,EC50,[14],3.84 µM (active)
same,IC50,[15],1.74 µM (active)
same,IC50,[16],> 20 µM (inactive)
CCOC(=O)c1ccc(-c2ccc(CO)o2)cc1,AC50,[17],11.6 µM (active)
CCOC(=O)c1sc(=S)n(-c2ccccc2Cl)c1SC,EC50,[1],10.7 µM (inactive)
same,EC50,[2],> 79.4 µM (not active)
same,EC50,[3],12.5 µM (not active)
same,IC50,[18],> 66 µM (inactive)
same,IC50,[19],> 66 µM (inactive)
Cc1ccc2scc(CN3CCCC3)c2c1,AC50,[17],5.66 µM (active)
COc1cccc(-c2c(C(=O)N/N=C/c3sccc3C)nnn2-c2nonc2N)c1,AC50,[20],7.8 µM (active)
CC(=C/c1ccccc1)/C=N/NC(=O)c1nnn(-c2nonc2N)c1CN1CCC(C)CC1,EC50,[10],0.601 µM (active)
C/C(=N\NC(=O)c1ccccc1F)c1ccccn1,EC50,[11],18 µM (active)
same,EC50,[21],12 µM (inconclusive)
same,IC50,[12],9.17 µM (active)
same,EC50,[22],4.68 µM (inconclusive)
same,IC50,[13],> 20 µM (inactive)
same,EC50,[14],> 20 µM (inactive)
same,IC50,[15],3.76 µM (inactive)
same,IC50,[16],> 20 µM (inactive)
same,EC50,[23],10.9 µM (active)
same,EC50,[24],2.9 µM (active)
same,IC50,[25],5.72 µM (active)
CC[n+]1c(/C=C/N(C)c2ccccc2)n(-c2ccccc2)c2ccc(-c3nc4ccccc4s3)cc21,EC50,[26],90 µM (active)
same,EC50,[27],0.35 µM (active)
same,EC50,[4],3.27 µM (active)
same,EC50,[21],2.49 µM (inconclusive)
same,EC50,[28],5.72 µM (active)
same,EC50,[29],0.387 µM (active)
same,EC50,[5],13.3 µM (active)
same,EC50,[22],2.93 µM (inconclusive)
same,EC50,[30],0.337 µM (active)
same,CC50,[31],3.06 µM (active)
same,EC50,[23],2.7 µM (inconclusive)
same,EC50,[24],3.03 µM (active)
same,EC50,[6],12 µM (active)
same,EC50,[10],> 32 µM (inactive)
same,IC50,[32],13.2 µM (active)
same,IC50,[33],9.83 µM (active)
same,IC50,[34],7.42 µM (active)
